# Measured values taken from patent US11938138B2, “Methods for improved treatment of cancer” (Washington University, priority 2020, dated 2024).
# Entries after “also recorded” stand apart in the source; their conditions may differ.
# Columns and labels:
# K562 cells [1] = settings: Litzenburger et al., 2017; cited from earlier work
# K562 cells [2] = test: JQ1 treatment of K562 cells, CD24 surface staining by flow cytometry; type: cell-based, human
# Experimental: HCT-116, N2a, HEK293T, and HepG2 cells were cultured in Dulbecco's Modified Eagle Medium (DMEM) supplemented with 10% fetal bovine serum (FBS) and 1% of either penicillin-streptomycin or antibiotic-antimycotic. K562 (unless otherwise indicated) and OCM-1A cells were grown under the same conditions as described above, replacing DMEM with RPMI 1640 Medium. Cells were grown at 37° C. with 5% carbon dioxide (CO2). Media was replenished every 2 days. HepG2 cells were a gift from the Genome Engineering iPSC Center (GEiC) at Washington University in St. Louis School of Medicine. OCM-1A cells were a gift from Dr. Michael Onken. For the CD24^high/CD24^low cell state analyses, K562 cells were grown in IMDM containing 10% v/v FBS and 1% penicillin-streptomycin at 37° C. with 5% CO2. Frozen aliquots were thawed and passaged every 48 hours until they reached a maximum concentration of 800,000 cells/ml. For experiments, cells were seeded at mid-log phase concentrations, around 400,000 cells/ml. At this point, ratio of CD24^high/CD24^low cells was approximately 1:1, as determined by flow cytometry.
# CD24 surface protein was quantified using monoclonal human antibodies. Cells were spun down at 300 g for 3 minutes and washed twice with 1 mL of Cell Staining Buffer. […] All samples were measured on a Beckman-Coulter CytoFLEX S flow cytometer. […]
# MYC and CD24 mRNA = test: qRT-PCR for MYC and CD24 expression in K562 cells treated with JQ1; type: cell-based, human; settings: K562, 250 nM JQ1, first 24 hours (FIG. 14C)
# Experimental: Cells were pelleted, resuspended in 300 μl of RNA CellProtect, and stored at −80° C. When we were ready to extract RNA, we thawed cells, prepared samples using QIAGEN RNEasy Plus Mini Kit, and quantitated with the Qubit RNA High Sensitivity kit. We reverse transcribed 500 ng of RNA with the SuperScript VILO cDNA Synthesis Kit in a 20 μl reaction, with the following thermocycling parameters: 25° C. for 10 minutes; 42° C. for 2 hours; 85° C. for 5 minutes. We then performed PCR with 2 μl of the RT product as template, 1 μl each of forward and reverse primer (10 μM), 6 μl ddH2O, and 10 μl PowerUp SYBR Green Master Mix. We ran the PCR on an ABI QuantStudio 3 with the following settings: 2 minutes at 50° C., then 2 minutes at 95° C. (hot start); 45 cycles of 95° C. for 15 s followed by 60° C. for 1 minute. We generated melt curves after each PCR and all samples yielded a single peak. Gene-specific primers were obtained from PrimerBank (Wang et al., 2012b). Data were normalized to the levels of […].
# K562 cells [3] = test: Imatinib treatment of K562 cells after JQ1 pretreatment (CD24, annexin V/PI staining); type: cell-based, human
# Experimental: CD24 surface protein was quantified using monoclonal human antibodies. Cells were spun down at 300 g for 3 minutes and washed twice with 1 mL of Cell Staining Buffer. The cell pellet was then resuspended in 50 μl of Cell Staining Buffer containing 0.2 μg of either CD24-APC or CD24-BV421. The tube was rotated at 4° C. in the dark for 30 minutes. After, cells were washed twice (as before) and finally resuspended in 200 μl of Cell Staining Buffer. Cells were excited with 450/45 and 660/20 lasers (wavelength/filter bandwidth, both in nm). For concomitant analysis of DNA content, we used CD24-APC. Cells were incubated with 10 μg/ml Hoechst 33342 in 5 mL of growth medium for 30 minutes prior to the staining protocol. For simultaneous assessment of apoptosis, cells were stained with CD24-BV421. After the final wash, instead of resuspending in 200 μl of Cell Staining Buffer, cells were washed twice with Annexin V Staining Buffer. […] All samples were measured on a Beckman-Coulter CytoFLEX S flow cytometer. […]
# For the analysis of annexin V levels in either JQ1- or DMSO-treated CD24^high and CD24^low cells, we used a three-way ANOVA with treatment, cell state, and day as independent variables. […] For the cell cycle inhibitor experiment, data were analyzed using a one-way ANOVA with Dunnett's post hoc test using either DMSO or EtOH (for RO-3306) as controls.
# K562 cells [4] = test: Cell cycle perturbation of K562 cells (DNA content, CD24, annexin V/PI); type: cell-based, human; settings: five days, one-way ANOVA p<0.01 (FIG. 14H)
# Experimental: CD24 surface protein was quantified using monoclonal human antibodies. Cells were spun down at 300 g for 3 minutes and washed twice with 1 mL of Cell Staining Buffer. The cell pellet was then resuspended in 50 μl of Cell Staining Buffer containing 0.2 μg of either CD24-APC or CD24-BV421. The tube was rotated at 4° C. in the dark for 30 minutes. After, cells were washed twice (as before) and finally resuspended in 200 μl of Cell Staining Buffer. Cells were excited with 450/45 and 660/20 lasers (wavelength/filter bandwidth, both in nm). For concomitant analysis of DNA content, we used CD24-APC. Cells were incubated with 10 μg/ml Hoechst 33342 in 5 mL of growth medium for 30 minutes prior to the staining protocol. For simultaneous assessment of apoptosis, cells were stained with CD24-BV421. After the final wash, instead of resuspending in 200 μl of Cell Staining Buffer, cells were washed twice with Annexin V Staining Buffer. Cells were then incubated in 50 μl Annexin V Staining Buffer containing 0.2 μg Annexin V-FITC and 100 μg/ml propidium iodide (PI). The reaction was incubated for 15 minutes at room temperature in the dark. Afterward, we added 150 μl of Annexin V Staining Buffer and proceeded to flow cytometry. All samples were measured on a Beckman-Coulter CytoFLEX S flow cytometer. Cells were excited with 450/45, 525/40, and 610/20 lasers. We collected 10,000 events per sample. The resulting data were processed with FlowJo Software for Mac Version 10.
# We perturbed the cell cycle with lovastatin and nocodazole, two drugs classically used to synchronize cells in culture (Jackman and O'Connor, 2001), as well as the cyclin-dependent kinase inhibitors CVT-313 (Brooks et al., 1997) and RO-3306 (Vassilev et al., 2006). All drugs were dissolved in DMSO except nocodazole, which was dissolved in ethanol. […] Media was refreshed every 48 hours. After 36 hours of treatment, we stained for CD24 levels and nuclear DNA content. We gated for live, single cells using the forward scatter (FSC) and side scatter channels (SSC). Univariate cell cycle analysis was performed with FlowJo. We confirmed that all drugs perturbed cell cycle by altering the proportions of cells in either G1 or G2/M phase (FIG. 14G). […] Cultures remained under drug treatment until five days had elapsed, at which point we measured CD24 levels and stained for apoptosis (FIG. 14H). As before, we set gates to exclude debris to quantitate annexin V and PI, and measured CD24 in live cells gated on FSC and SSC. The G2 inhibitors, in particular, had very few cells in the FSC/SSC gate (typically below 5%).
# For the analysis of annexin V levels in either JQ1- or DMSO-treated CD24^high and CD24^low cells, we used a three-way ANOVA with treatment, cell state, and day as independent variables. […] Multiple hypothesis correction was performed using Tukey's honestly significant difference. For the cell cycle inhibitor experiment, data were analyzed using a one-way ANOVA with Dunnett's post hoc test using either DMSO or EtOH (for RO-3306) as controls.
# [5] = tested on: MNNG/HOS osteosarcoma cells; settings: as single agent; cited from earlier work
# [6] = tested on: Hematologic and solid malignancies; 17 with NMC; settings: cited from earlier work
# BRD4 = BRD4 CRISPRi of K562 cells; type: cell-based, human
# Text: For CRISPRi, we first made lentivirus expressing dCas9-KRAB (Fulco et al., 2016; Xie et al., 2017) from Addgene plasmid #89567, a gift from Gary Hon, packaged in HEK293T cells along with pMD2.G (Addgene plasmid #12259) and psPAX2 (Addgene plasmid #12260), both gifts from Didier Trono. We cloned a BRD4 guide RNA, selected from the Dolcetto collection (Sanson et al., 2018), into the sgOpti plasmid (Addgene plasmid #85681, a gift from Eric Lander & David Sabatini) using Golden Gate assembly with Esp3I. We used an in-house pipeline to design a non-targeting gRNA sequence, which was cloned into CROP-seq-opti (Lalli et al., 2019). Plasmids were transfected into HEK293T cells using Lipofectamine 2000. Media was collected after 24 and 48 hours, and subsequently concentrated using Lenti-X Concentrator. Viral titers were functionally assed on HEK293T cells using the appropriate antibiotic (blasticidin or puromycin).
# Next, we generated a polyclonal pool of dCas9-KRAB-expressing K562 cells. We seeded each well of a 6-well plate with 200,000 cells each containing 2 mL of growth media supplemented with 4 μg/ml polybrene and 1,000,000 infectious lentiviral particles for an estimated multiplicity of infection (MOI) of 5. Plates were centrifuged at 2,000 g for 30 minutes and returned to the incubator. After 48 hours, cells were split to mid-log phase concentration (˜400,000 cells/nil) and selected on blasticidin (10 μg/ml) for 48 hours. We made frozen stocks from these cells.
# For the knockdown experiments, cells were thawed and allowed to recover for 4 days. We confirmed that the proportions of CD24^high/CD24^low was approximately equal at this point. We then seeded 200,000 cells into each well of a 6-well plate. Three wells received the BRD4 gRNA lentivirus, while the other three received the non-targeting gRNA lentivirus, at MOI 2.5. We followed the same transduction protocol described above. After 48 hours of incubation, puromycin was added to the medium at a final concentration of 2 μg/ml. After a further 48 hours, cells were passaged 1:1 into 10 cm dishes containing 10 mL of growth medium. […]
molecule,measurement,setting,value
Cc1ccc(NC(=O)c2ccc(CN3CCN(C)CC3)cc2)cc1Nc1nccc(-c2cccnc2)n1 [imatinib],apoptosis of CD24low versus CD24high K562 cells when exposed to imatinib,K562 cells [1],more apoptosis
Cc1sc2c(c1C)C(c1ccc(Cl)cc1)=N[C@@H](CC(=O)OC(C)(C)C)c1nnc(C)n1-2 [JQ1],time course of conversion to CD24low state,"K562 cells [2]; K562, 250 nM JQ1, 7-day time course (FIG. 6D), rapid over first two days, stable at one week",plateaus at day four; also recorded: plateaued by day 4
same,CD24low cells in the population after JQ1 exposure,"K562 cells [2]; K562, 250 nM JQ1, 96 h (FIG. 6C), start equal proportions CD24high/CD24low",> 95%
same,time of JQ1 exposure within which MYC mRNA levels fell,MYC and CD24 mRNA,≤ 3 h
same,sensitivity of K562 cells to imatinib,"K562 cells [3]; BET inhibitor pretreatment, then imatinib 1 μM",sensitizes K562 cells to imatinib
same,fraction of CD24high cells after pretreatment (mean),"K562 cells [3]; K562, 250 nM JQ1 for five days, DMSO group 54%",17%
same,reduction in CD24high cells compared with cell cycle inhibitors,K562 cells [4]; 250 nM JQ1,greatest reduction
same,"apoptosis compared with lovastatin, its closest competitor",K562 cells [4]; annexin V/PI,significantly less apoptosis
same,tumor volume and weight,[5],had no effect on either
CCNC(=O)C[C@@H]1N=C(c2ccc(Cl)cc2)c2cc(OC)ccc2-n2c(C)nnc21 [GSK525762],Responses observed: PR in NMC patients,[6]; 17 with NMC,2
same,Responses observed: SD in NMC patients,[6]; 17 with NMC,4
same,RP2D,"[6]; daily, 70 patients",80 mg
"BRD4 gRNA: guide RNA GCGGCTGCCGGCGGTGCCCG for knockdown of BRD4 with CRISPRi (dCas9-KRAB) (listed as DNA, chemistry not given here)",sensitization of K562 cells to imatinib,"BRD4; imatinib 1 μM, Tukey's HSD p=0.68 (FIG. 14E-14F)",partially phenocopied
same,proportion of CD24high cells compared to non-targeting (NT) gRNA,"BRD4; nine days after gRNA transduction, Welch's t test p<0.01 (FIG. 6E), not to the same levels as JQ1",significant decrease
same,reduction of BRD4 mRNA levels,BRD4; qRT-PCR (FIG. 14D),less than 50%
